Test system: T1, Horseradish peroxidase (HRP)
T1 construct: gene PRXC1A; free enzyme
Test: colorimetric peroxidase assay, Lineweaver-Burk plot
Assay type: biochemical
Conditions: free enzyme, not immobilised; co-substrate H2O2 (concentration not stated); pH and temperature not stated; read-out: Kmapp

Question: For CCN(CC)c1ccc(N)cc1 [DPD, N,N-diethyl-p-phenylenediaminesulfate], which Km is on record?
Answer: 500 µM
